In patent publication US6916927B2, “Pyrazolopyrimidinones which inhibit type 5 cyclic guanosine 3′,5′-monophosphate phosphodiesterase (cGMP-PDE5) for the treatment of sexual dysfunction” (Pfizer Inc., priority 1997, dated 2005):

Biological target: cGMP-specific PDE (PDE5) (UniProt O76074)
Test: In vitro PDE inhibitory activity (IC50) against cGMP PDE5
Type: biochemical, human or rabbit
Details: in vitro activities as inhibitors of cGMP PDE5
Protocol: In vitro PDE inhibitory activities against cyclic guanosine 3′,5′-monophosphate (cGMP) and cyclic adenosine 3′,5′-monophosphate (cAMP) phosphodiesterases were determined by measurement of their IC50 values (the concentration of compound required for 50% inhibition of enzyme activity).
The required PDE enzymes were isolated from a variety of sources, including human corpus cavernosum, human and rabbit platelets, human cardiac ventricle, human skeletal muscle and bovine retina, essentially by the method of W. J. Thompson and M. M. Appleman (Biochem., 1971, 10, 311). In particular, the cGMP-specific PDE (PDE5) and the cGMP-inhibited cAMP PDE (PDE3) were obtained from human corpus cavernosum tissue, human platelets or rabbit platelets; the cGMP-stimulated PDE (PDE2) was obtained from human corpus cavernosum; the calcium/calmodulin (Ca/CAM)-dependent PDE (PDE1) from human cardiac ventricle; the cAMP-specific PDE (PDE^4) from human skeletal muscle; and the photoreceptor PDE (PDE6) from bovine retina.
Assays were performed using a modification of the “batch” method of W. J. Thompson et al. (Biochem., 1979, 18, 5228).

| Structure (SMILES) | IC50 [nM] |
| --- | --- |
| CCCc1nn(Cc2ccccc2)c2c(=O)[nH]c(-c3cc(S(=O)(=O)N4CCN(C)CC4)ccc3OCC)nc12 [Example 41, 1-Benzyl-5-[2-ethoxy-5-(4-methylpiperazin-1-ylsulphonyl)phenyl]-3-n-propyl-1,6-dihydro-7H-pyrazolo[4,3-d]pyrimidin-7-one] | 3.9 |
| CCCOc1ccc(S(=O)(=O)N2CCN(CC)CC2)cc1-c1nc2c(CCC)n(Cc3cccc[n+]3[O-])nc2c(=O)[nH]1 [Example 129, 5-[5-(4-Ethylpiperazin-1-ylsulphonyl)-2-n-propoxyphenyl]-2-(1-oxidopyridin-2-yl)methyl-3-n-propyl-2,6-dihydyro-7H-pyrazolo[4,3-d]pyrimidin-7-one] | 6.5 |
| CCCOc1ccc(S(=O)(=O)N2CCN(C)CC2)cc1-c1nc2c(CCC)n(-c3ncccn3)nc2c(=O)[nH]1 [Example 125, 5-[5-(4-Methylpipierazin-1-ylsulphonyl)-2-n-propoxyphenyl]-3-n-propyl-2-pyrimidin-2-yl-2,6-dihydro-7H-pyrazolo[4,3-d]pyrimidin-7-one] | 2.8 |
| CCCOc1ccc(S(=O)(=O)N2CCN(CC)CC2)cc1-c1nc2c(CCC)nn(CCN3CCOCC3)c2c(=O)[nH]1 [Example 100, 5-[5-(4-Ethylpiperazin-1-ylsulphonyl)-2-n-propoxyphenyl]-1-(2-morpholin-4-ylethyl)-3-n-propyl-1,6-dihydro-7H-pyrazolo[4,3-d]pyrimidin-7-one] | 1.9 |
| CCCc1c2nc(-c3cc(S(=O)(=O)N4CCN(C)CC4)ccc3OCC)[nH]c(=O)c2nn1Cc1ccccc1 [Example 87, 2-Benzyl-5-[2-ethoxy-5-(4-methylpiperazin-1-ylsulphonyl)phenyl]-3-n-propyl-2,6-dihydro-7H-pyrazolo[4,3-d]pyrimidin-7-one] | 12 |
| CCCOc1ccc(S(=O)(=O)N2CCN(CC)CC2)cc1-c1nc2c(CCC)n(-c3ccccc3NS(C)(=O)=O)nc2c(=O)[nH]1 [Example 117, 5-[5-(4-Ethylpiperazin-1-ylsulphonyl)-2-n-propoxyphenyl]-2-(2-methanesulphonamidophenyl)-3-n-propyl-2,6-dihydro-7H-pyrazolo[4,3-d]-pyrimidin-7-one] | 3.2 |
| CCCc1c2nc(-c3cc(S(=O)(=O)N4CCN(C)CC4)ccc3OCC)[nH]c(=O)c2nn1CC1CCC1 [Example 126, 2-Cyclobutylmethyl-5-[2-ethoxy-5-(4-methylpiperazin-1-ylsulphonyl)phenyl]-3-n-propyl-2,6-dihydro-7H-pyrazolo[4,3-d]pyrimidin-7-one] | 9.2 |

The remaining compounds from weak to strong by IC50, led by results:

| IC50 [nM] | Structure (SMILES) |
| --- | --- |
| 7.1 | CCCOc1ccc(S(=O)(=O)N2CCN(C)CC2)cc1-c1nc2c(CCC)n(Cc3ncnn3C)nc2c(=O)[nH]1 [Example 77, 5-[5-(4-Methylpiperazin-1-ylsulphonyl)-2-n-propoxyphenyl]-2-(1-methyl-1,2,4-triazol-5-yl)methyl-3-n-propyl-2,6-dihydro-7H-pyrazolo[4,3-d]pyrimidin-7-one] |
| 4 | CCCOc1ccc(S(=O)(=O)N2CCN(C)CC2)cc1-c1nc2c(CCC)nn(Cc3ncnn3C)c2c(=O)[nH]1 [Example 31, 5-[5-(4-Methylpiperazin-1-ylsulphonyl)-2-n-propoxyphenyl]-1(1-methyl-1,2,4-triazol-5-yl)methyl-3-n-propyl-1,6-dihydro-7H-pyrazolo-[4,3-d]pyrimidin-7-one] |
| 2.6 | CCCOc1ccc(S(=O)(=O)N2CCN(CCO)CC2)cc1-c1nc2c(CCC)n(Cc3ccccn3)nc2c(=O)[nH]1 [Example 7, 5-{5-[4-(2-Hydroxyethyl)piperazin-1-ylsulphonyl]-2-n-propoxyphenyl}-3-n-propyl-2-(pyridin-2-yl)methyl-2,6-dihydro-7H-pyrazolo[4,3-d]pyrimidin-7-one] |
| 2.2 | CCCOc1ccc(S(=O)(=O)N2CCN(CCO)CC2)cc1-c1nc2c(CCC)nn(Cc3ccccn3)c2c(=O)[nH]1 [Example 4, 5-{5-[4-(2-Hydroxyethyl)piperazin-1-ylsulphonyl]-2-n-propoxyphenyl}-3-n-propyl-1-(pyridin-2-yl)methyl-1,6-dihydro-7H-pyrazolo[4,3-d]pyrimidin-7-one] |
| 2.1 | CCCOc1ccc(S(=O)(=O)N2CCN(CC)CC2)cc1-c1nc2c(CCC)n(CCN3CCOCC3)nc2c(=O)[nH]1 [Example 108, 5-[5-(4-Ethylpiperazin-1-ylsulphonyl)-2-n-propoxyphenyl]-2-(2-morphin-4-ylethyl)-3-n-propyl-2,6-dihydro-7H-pyrazolo[4,3-d]pyrimidin-7-one] |
